In one assay the target is CDK2/Cyclin E1 complex (Homo sapiens, UniProt P24941). Kind of assay: CDK2 inhibition assay (Caliper/LabChip EZ Reader kinase assay). It counts as biochemical. As to conditions: Table 1; CDK2/Cyclin E1 0.5 nM, ATP 2 mM, 35 min at 27° C. In outline:
(§1)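 Activity read as fluorescent peptide conversion on a LabChip EZ Reader. For CDK2/Cyclin E1 (0.5 nM), substrate was 5-FAM-CDK7tide (2 μM) with 2 mM MgCl2; for CDK9/Cyclin T1 (8 nM), 5-FAM-CDK9tide (2 μM) with 10 mM MgCl2.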

For another assay, the target named is CDK9/Cyclin T1 complex (Homo sapiens, UniProt P50750). Kind of assay: CDK9 inhibition assay (Caliper/LabChip EZ Reader kinase assay). It is filed as biochemical. Conditions: Table 1; CDK9/Cyclin T1 8 nM, ATP 2 mM, 15 min at 27° C. Put shortly:
as §1

The subject of a further assay is A673 cells. Kind of assay: Inhibition of proliferation of A673 cells (CyQUANT, 72 hour). It is filed as cell-based, human. As to conditions: A673 cells, 72 hour, CyQUANT, read-out: Inhibition of Proliferation of A673 Cells (calculated IC50). Put shortly:
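Proliferation read-out by CyQUANT after a 72 h exposure, compounds spanning 4 μM–[…] in half-log steps. A673 cells cultured at 37° C under 5% CO2 in DMEM supplemented with 10% FBS plus 1 mM sodium pyruvate.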

Assay [1] concerns the target CDK7/Cyclin H/MAT1 complex (Homo sapiens, UniProt P50613). Kind of assay: CDK7 inhibition assay (Caliper/LabChip EZ Reader kinase assay). It is filed as biochemical. Conditions: Table 1; CDK7/Cyclin H/MAT1 6 nM, ATP 2 mM, 35 min at 27° C. In outline:
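A Perkin Elmer Caliper/LabChip EZ Reader (Waltham, MA) platform served as the basis for this CDK7 kinase inhibition assay. The work was carried out by Biortus Biosciences, located in Jiangyin, Jiangsu Province, P.R. of China. Each CDK studied had its own kinase assay, and compounds were evaluated for their ability to block CDK7 activity.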

In assay [2] the target is T1, CDK12 (aa686-1082)/Cyclin K complex (Homo sapiens, UniProt Q9NYV4).
T1 construct: CDK12 (aa686-1082)/Cyclin K complex
Kind of assay: CDK12 inhibition assay (Caliper/LabChip EZ Reader kinase assay). It counts as biochemical. Conditions: Table 1; CDK12 (aa686-1082)/Cyclin K 50 nM, ATP 2 mM, 3 hr at 27° C.

Read-outs that look alike come from different tables or passages of the source. Some results are limits rather than exact numbers.

Sequence of CDK7/Cyclin H/MAT1 complex (P50613 whole entry, species assumed): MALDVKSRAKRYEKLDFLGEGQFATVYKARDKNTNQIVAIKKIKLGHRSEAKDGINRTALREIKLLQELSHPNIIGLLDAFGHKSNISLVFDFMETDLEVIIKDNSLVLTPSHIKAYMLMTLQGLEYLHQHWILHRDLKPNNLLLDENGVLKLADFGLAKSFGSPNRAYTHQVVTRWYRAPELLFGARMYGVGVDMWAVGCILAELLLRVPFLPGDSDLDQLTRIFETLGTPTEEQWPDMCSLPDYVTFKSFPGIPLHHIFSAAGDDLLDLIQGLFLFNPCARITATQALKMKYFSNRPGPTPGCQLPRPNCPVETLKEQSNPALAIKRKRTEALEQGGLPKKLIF
Sequence of CDK7/Cyclin H/MAT1 complex (P51946 whole entry partner, species assumed): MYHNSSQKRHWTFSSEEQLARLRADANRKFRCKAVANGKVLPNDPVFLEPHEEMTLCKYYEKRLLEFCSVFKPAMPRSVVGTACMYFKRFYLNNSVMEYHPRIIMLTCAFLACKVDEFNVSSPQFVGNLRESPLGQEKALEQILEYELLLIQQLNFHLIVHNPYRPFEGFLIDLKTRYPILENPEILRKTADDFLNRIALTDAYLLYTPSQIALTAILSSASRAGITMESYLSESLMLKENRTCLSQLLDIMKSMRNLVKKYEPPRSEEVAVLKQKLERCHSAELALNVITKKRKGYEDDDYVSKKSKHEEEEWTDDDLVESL
Sequence of CDK7/Cyclin H/MAT1 complex (P51948 whole entry partner, species assumed): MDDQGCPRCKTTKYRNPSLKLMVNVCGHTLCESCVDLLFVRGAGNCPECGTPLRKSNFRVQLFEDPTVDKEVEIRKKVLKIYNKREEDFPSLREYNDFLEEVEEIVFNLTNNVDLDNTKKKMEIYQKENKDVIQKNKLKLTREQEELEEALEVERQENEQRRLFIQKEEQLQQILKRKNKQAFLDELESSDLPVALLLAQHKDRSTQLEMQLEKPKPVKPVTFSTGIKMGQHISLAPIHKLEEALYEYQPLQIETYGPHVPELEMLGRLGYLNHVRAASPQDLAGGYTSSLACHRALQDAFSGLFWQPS
Sequence of CDK9/Cyclin T1 complex (P50750 whole entry, species assumed): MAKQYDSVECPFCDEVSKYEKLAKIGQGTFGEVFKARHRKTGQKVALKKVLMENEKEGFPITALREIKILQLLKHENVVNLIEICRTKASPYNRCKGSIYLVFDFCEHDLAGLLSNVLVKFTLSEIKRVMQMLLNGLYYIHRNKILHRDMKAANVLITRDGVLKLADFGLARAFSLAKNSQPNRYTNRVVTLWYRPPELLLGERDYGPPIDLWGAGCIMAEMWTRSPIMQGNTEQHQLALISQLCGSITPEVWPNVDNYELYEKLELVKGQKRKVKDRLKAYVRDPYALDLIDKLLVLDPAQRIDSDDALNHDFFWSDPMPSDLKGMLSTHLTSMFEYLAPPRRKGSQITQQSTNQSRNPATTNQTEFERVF
Sequence of CDK9/Cyclin T1 complex (O60563 whole entry partner, species assumed): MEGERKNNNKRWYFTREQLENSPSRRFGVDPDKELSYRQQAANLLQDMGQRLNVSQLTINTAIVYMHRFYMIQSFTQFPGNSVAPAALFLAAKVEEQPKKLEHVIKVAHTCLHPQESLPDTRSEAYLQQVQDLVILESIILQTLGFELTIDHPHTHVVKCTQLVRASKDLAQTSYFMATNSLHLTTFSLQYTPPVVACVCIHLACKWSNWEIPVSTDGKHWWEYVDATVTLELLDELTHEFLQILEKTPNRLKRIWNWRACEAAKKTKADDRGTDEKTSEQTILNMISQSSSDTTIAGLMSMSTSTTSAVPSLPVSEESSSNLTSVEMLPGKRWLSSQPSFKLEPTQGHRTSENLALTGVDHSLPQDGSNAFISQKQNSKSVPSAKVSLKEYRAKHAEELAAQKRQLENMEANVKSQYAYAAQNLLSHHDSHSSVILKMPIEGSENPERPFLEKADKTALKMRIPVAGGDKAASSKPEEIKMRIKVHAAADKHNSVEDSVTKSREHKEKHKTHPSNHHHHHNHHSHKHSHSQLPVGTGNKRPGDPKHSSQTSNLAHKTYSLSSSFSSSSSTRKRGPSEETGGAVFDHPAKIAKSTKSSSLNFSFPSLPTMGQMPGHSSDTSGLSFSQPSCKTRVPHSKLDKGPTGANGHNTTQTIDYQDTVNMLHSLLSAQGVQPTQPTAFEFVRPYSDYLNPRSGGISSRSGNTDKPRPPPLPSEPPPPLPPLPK
T1 sequence (Q9NYV4 686-1082, species assumed): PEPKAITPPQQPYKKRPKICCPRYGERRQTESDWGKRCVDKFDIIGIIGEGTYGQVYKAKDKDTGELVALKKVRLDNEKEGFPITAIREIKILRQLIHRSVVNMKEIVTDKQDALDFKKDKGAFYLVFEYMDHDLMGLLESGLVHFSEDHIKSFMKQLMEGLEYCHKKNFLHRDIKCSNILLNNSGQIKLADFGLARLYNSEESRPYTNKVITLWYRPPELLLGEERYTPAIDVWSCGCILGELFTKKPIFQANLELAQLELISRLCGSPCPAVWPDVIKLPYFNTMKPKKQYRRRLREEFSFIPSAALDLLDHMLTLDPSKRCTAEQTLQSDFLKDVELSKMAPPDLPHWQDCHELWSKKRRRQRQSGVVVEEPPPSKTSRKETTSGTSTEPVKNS
T1 sequence (O75909 whole entry partner, species assumed, the tested form may be a part): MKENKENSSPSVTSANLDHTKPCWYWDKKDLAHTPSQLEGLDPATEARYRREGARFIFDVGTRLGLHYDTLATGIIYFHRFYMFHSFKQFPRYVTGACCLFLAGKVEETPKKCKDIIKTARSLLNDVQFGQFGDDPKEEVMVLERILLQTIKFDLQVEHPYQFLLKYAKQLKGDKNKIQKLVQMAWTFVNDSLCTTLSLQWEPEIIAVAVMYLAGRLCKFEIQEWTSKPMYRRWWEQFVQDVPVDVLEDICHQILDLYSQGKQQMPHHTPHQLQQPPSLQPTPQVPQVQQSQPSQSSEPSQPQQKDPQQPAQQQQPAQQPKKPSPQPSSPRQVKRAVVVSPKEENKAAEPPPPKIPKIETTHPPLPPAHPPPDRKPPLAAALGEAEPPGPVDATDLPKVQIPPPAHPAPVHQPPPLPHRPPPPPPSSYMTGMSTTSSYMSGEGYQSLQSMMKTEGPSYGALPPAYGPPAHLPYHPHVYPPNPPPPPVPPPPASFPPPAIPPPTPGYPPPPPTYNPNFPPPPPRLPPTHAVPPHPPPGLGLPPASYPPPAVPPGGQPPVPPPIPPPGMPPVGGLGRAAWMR

Turning to `FC(F)(F)c1cnc(N[C@H]2CCCNC2)nc1-c1c[nH]c2cc(-c3cccnc3)ccc12` [Compound 223, N-[(3S)-3-piperidyl]-4-[6-(3-pyridyl)-1H-indol-3-yl]-5-(trifluoromethyl) pyrimidin-2-amine], the IC50 against CDK2/Cyclin E1 complex is 200 to 5000 nM; against CDK9/Cyclin T1 complex, 200 to 5000 nM; in the assay with A673 cells (Homo sapiens, A673, 72 h), 20 to 200 nM; in assay [1], below 20 nM; in assay [2], 200 to 5000 nM.
With `FC(F)(F)c1cnc(N[C@H]2CCCNC2)nc1-c1c[nH]c2cc(-c3ccncc3)ccc12` [Compound 224, N-[(3S)-3-piperidyl]-4-[6-(4-pyridyl)-1H-indol-3-yl]-5-(trifluoromethyl) pyrimidin-2-amine], the IC50 against CDK2/Cyclin E1 complex is 200 to 5000 nM; on CDK9/Cyclin T1 complex, 200 to 5000 nM; in the assay with A673 cells (Homo sapiens, A673, 72 h), 20 to 200 nM; in assay [1], below 20 nM; in assay [2], 200 to 5000 nM.
As for `Cn1cc(-c2ccc3c(-c4nc(N[C@H]5CCCNC5)ncc4C(F)(F)F)c[nH]c3c2)cc1C#N` [Compound 225, 1-methyl-4-[3-[2-[[(3S)-3-piperidyl]amino]-5-(trifluoromethyl)pyrimidin-4-yl]-1H-indol-6-yl] pyrrole-2-carbonitrile], the IC50 against CDK2/Cyclin E1 complex is 200 to 5000 nM; against CDK9/Cyclin T1 complex, 200 to 5000 nM; in the assay on A673 cells (Homo sapiens, A673, 72 h) it was 20 to 200 nM; in assay [1], below 20 nM; in assay [2], 200 to 5000 nM.
Consider `Cc1nn(C)cc1-c1ccc2c(-c3nc(N[C@H]4CCCNC4)ncc3C(F)(F)F)c[nH]c2c1` [Compound 226, 4-[6-(1,3-dimethylpyrazol-4-yl)-1H-indol-3-yl]-N-[(3S)-3-piperidyl]-5-(trifluoromethyl) pyrimidin-2-amine], for which the IC50 against CDK2/Cyclin E1 complex was 200 to 5000 nM; on CDK9/Cyclin T1 complex, 200 to 5000 nM; with A673 cells (Homo sapiens, A673, 72 h), below 20 nM; in assay [1], below 20 nM; in assay [2], 200 to 5000 nM.
Regarding `Cc1c(-c2ccc3c(-c4nc(N[C@H]5CCCNC5)ncc4C(F)(F)F)c[nH]c3c2)cnn1C` [Compound 227, 4-[6-(1,5-dimethylpyrazol-4-yl)-1H-indol-3-yl]-N-[(3S)-3-piperidyl]-5-(trifluoromethyl) pyrimidin-2-amine], the IC50 at CDK2/Cyclin E1 complex is 200 to 5000 nM; at CDK9/Cyclin T1 complex, 200 to 5000 nM; with A673 cells (Homo sapiens, A673, 72 h), 20 to 200 nM; in assay [1] it was below 20 nM; in assay [2] it was 200 to 5000 nM.
As for `O=C([C@H]1CC[C@H](Nc2ncc(C(F)(F)F)c(-c3c[nH]c4ccccc34)n2)CN1)N1CCCC1` [Compound 228], the IC50 at CDK2/Cyclin E1 complex was 200 to 5000 nM; at CDK9/Cyclin T1 complex it was 200 to 5000 nM; in the assay on A673 cells (Homo sapiens, A673, 72 h), 20 to 200 nM; in assay [1], below 20 nM; in assay [2], 200 to 5000 nM.
With `Cc1n[nH]cc1-c1ccc2c(-c3nc(N[C@H]4CCCNC4)ncc3C(F)(F)F)c[nH]c2c1` [Compound 229, 4-[6-(3-methyl-1H-pyrazol-4-yl)-1H-indol-3-yl]-N-[(3S)-3-piperidyl]-5-(trifluoromethyl) pyrimidin-2-amine], the IC50 against CDK2/Cyclin E1 complex was 200 to 5000 nM; at CDK9/Cyclin T1 complex it was 200 to 5000 nM; in the assay on A673 cells (Homo sapiens, A673, 72 h), below 20 nM; in assay [1], below 20 nM; in assay [2] it was 200 to 5000 nM.
In the case of `FC(F)(F)c1cnc(N[C@H]2CCCNC2)nc1-c1c[nH]c2cc(-c3ccnnc3)ccc12` [Compound 230, N-[(3S)-3-piperidyl]-4-(6-pyridazin-4-yl-1H-indol-3-yl)-5-(trifluoromethyl) pyrimidin-2-amine], the IC50 is 200 to 5000 nM against CDK2/Cyclin E1 complex; 200 to 5000 nM on CDK9/Cyclin T1 complex; 20 to 200 nM with A673 cells (Homo sapiens, A673, 72 h); below 20 nM in assay [1]; 200 to 5000 nM in assay [2].
Take `CCc1cnc(-c2c[nH]c3ncc(F)cc23)nc1N[C@H]1CCCNC1` [Compound 231, 5-ethyl-2-(5-fluoro-1H-pyrrolo [2,3-b]pyridin-3-yl)-N-[(3S)-3-piperidyl] pyrimidin-4-amine]: the IC50 on CDK2/Cyclin E1 complex is above 5000 nM; against CDK9/Cyclin T1 complex it was above 5000 nM; with A673 cells (Homo sapiens, A673, 72 h) it was 200 to 5000 nM; in assay [1], above 5000 nM; in assay [2] it was above 5000 nM.
With `N#Cc1cc(-c2ccc3c(-c4nc(N[C@H]5CCCNC5)ncc4C(F)(F)F)c[nH]c3c2)c[nH]1` [Compound 233, 4-[3-[2-[[(3S)-3-piperidyl]amino]-5-(trifluoromethyl)pyrimidin-4-yl]-1H-indol-6-yl]-1H-pyrrole-2-carbonitrile], the IC50 was 200 to 5000 nM on CDK2/Cyclin E1 complex; 200 to 5000 nM against CDK9/Cyclin T1 complex; 20 to 200 nM in the assay on A673 cells (Homo sapiens, A673, 72 h); below 20 nM in assay [1]; 200 to 5000 nM in assay [2].
Regarding `Cc1nc(-c2ccc3c(-c4nc(N[C@H]5CCCNC5)ncc4C(F)(F)F)c[nH]c3c2)n[nH]1` [Compound 235], the IC50 was 200 to 5000 nM against CDK2/Cyclin E1 complex; 200 to 5000 nM against CDK9/Cyclin T1 complex; 200 to 5000 nM in the assay on A673 cells (Homo sapiens, A673, 72 h); below 20 nM in assay [1]; 200 to 5000 nM in assay [2].
On to `FC1(F)CNC[C@@H](Nc2ncc(C(F)(F)F)c(-c3c[nH]c4ccccc34)n2)C1` [Compound 236, N-[(3S)-5,5-difluoro-3-piperidyl]-4-(1H-indol-3-yl)-5-(trifluoromethyl) pyrimidin-2-amine], for which the IC50 was 200 to 5000 nM on CDK2/Cyclin E1 complex; 200 to 5000 nM on CDK9/Cyclin T1 complex; 20 to 200 nM in the assay on A673 cells (Homo sapiens, A673, 72 h); below 20 nM in assay [1]; 200 to 5000 nM in assay [2].
Regarding `CC(C)(O)CCc1ccc2c(-c3nc(N[C@H]4CCCNC4)ncc3C(F)(F)F)c[nH]c2c1` [Compound 242, 2-methyl-4-[3-[2-[[(3S)-3-piperidyl]amino]-5-(trifluoromethyl)pyrimidin-4-yl]-1H-indol-6-yl] butan-2-ol], the IC50 at CDK2/Cyclin E1 complex was above 5000 nM; at CDK9/Cyclin T1 complex, 200 to 5000 nM; with A673 cells (Homo sapiens, A673, 72 h), 20 to 200 nM; in assay [1] it was 20 to 200 nM; in assay [2], 200 to 5000 nM.
In the case of `CC1(C)CNC[C@@H](Nc2ncc(C(F)(F)F)c(-c3c[nH]c4ccccc34)n2)C1` [Compound 243, N-[(3S)-5,5-dimethyl-3-piperidyl]-4-(1H-indol-3-yl)-5-(trifluoromethyl) pyrimidin-2-amine], the IC50 against CDK2/Cyclin E1 complex is 200 to 5000 nM; against CDK9/Cyclin T1 complex, 200 to 5000 nM; with A673 cells (Homo sapiens, A673, 72 h) it was below 20 nM; in assay [1], below 20 nM; in assay [2], 20 to 200 nM.
As to `Cc1nc(-c2ccc3c(-c4nc(N[C@H]5CCCNC5)ncc4C(F)(F)F)c[nH]c3c2)nn1C` [Compound 245, 4-[6-(1,5-dimethyl-1,2,4-triazol-3-yl)-1H-indol-3-yl]-N-[(3S)-3-piperidyl]-5-(trifluoromethyl) pyrimidin-2-amine], the IC50 was 200 to 5000 nM against CDK2/Cyclin E1 complex; above 5000 nM on CDK9/Cyclin T1 complex; 20 to 200 nM with A673 cells (Homo sapiens, A673, 72 h); below 20 nM in assay [1]; 200 to 5000 nM in assay [2].
Regarding `COC(C)c1cnc(N[C@H]2CCCNC2)nc1-c1c[nH]c2ccccc12` (stereo partly drawn) [Compound 247], the IC50 against CDK2/Cyclin E1 complex was above 5000 nM; against CDK9/Cyclin T1 complex, above 5000 nM; in the assay with A673 cells (Homo sapiens, A673, 72 h), 200 to 5000 nM; in assay [1], 200 to 5000 nM; in assay [2], above 5000 nM.
Consider `N#Cc1cn(-c2ccc3c(-c4nc(NC5CCCNC5)ncc4C(F)(F)F)c[nH]c3c2)cn1` (stereo not drawn) [Compound 249], for which the IC50 at CDK2/Cyclin E1 complex is above 5000 nM; at CDK9/Cyclin T1 complex, above 5000 nM; in the assay with A673 cells (Homo sapiens, A673, 72 h) it was 20 to 200 nM; in assay [1], below 20 nM; in assay [2], 200 to 5000 nM.
For the compound `CNC(=O)[C@@H]1CNC[C@@H](Nc2ncc(C(F)(F)F)c(-c3c[nH]c4ccccc34)n2)C1` [Compound 256], the IC50 against CDK2/Cyclin E1 complex was 200 to 5000 nM; against CDK9/Cyclin T1 complex, above 5000 nM; in the assay with A673 cells it was 200 to 5000 nM; in assay [1], 20 to 200 nM; in assay [2] it was 200 to 5000 nM.
In the case of `N#Cc1ccc2c(-c3nc(N[C@H]4CCCNC4)ncc3C(F)(F)F)c[nH]c2c1C#N` [Compound 258, 3-[2-[[(3S)-3-piperidyl]amino]-5-(trifluoromethyl)pyrimidin-4-yl]-1H-indole-6,7-dicarbonitrile], the IC50 at CDK2/Cyclin E1 complex is 200 to 5000 nM; against CDK9/Cyclin T1 complex it was 200 to 5000 nM; in the assay on A673 cells (Homo sapiens, A673, 72 h), 20 to 200 nM; in assay [1] it was below 20 nM; in assay [2], 200 to 5000 nM.
In the case of `CC(C)C1CCC(Nc2ncc(C(F)(F)F)c(-c3c[nH]c4ccccc34)n2)CN1` (stereo not drawn) [Compound 260], the IC50 against CDK2/Cyclin E1 complex was above 5000 nM; against CDK9/Cyclin T1 complex it was above 5000 nM; with A673 cells (Homo sapiens, A673, 72 h), 200 to 5000 nM; in assay [1], 200 to 5000 nM; in assay [2], 200 to 5000 nM.
With `CCc1cnc(N[C@H]2CCCNC2)nc1-c1n[nH]c2ncccc12` [Compound 262, 5-ethyl-N-[(3S)-3-piperidyl]-4-(1H-pyrazolo[3,4-b]pyridin-3-yl)pyrimidin-2-amine], the IC50 is 200 to 5000 nM against CDK2/Cyclin E1 complex; 200 to 5000 nM at CDK9/Cyclin T1 complex; 20 to 200 nM in the assay with A673 cells (Homo sapiens, A673, 72 h); below 20 nM in assay [1]; 200 to 5000 nM in assay [2].

The record behind these values is US20240360165A1, “INHIBITORS OF CYCLIN DEPENDENT KINASE 7 (CDK7)” (Syros Pharmaceuticals, Inc., priority 2016, published 2024).
